Data as given in US6677310B1, “Ring-expanded nucleosides and nucleotides” (Nabi, priority 1999, dated 2004).

What was measured:
[1] = system: panel of cancer cell lines; assay: In vitro anti-cancer assay, panel of cancer cell lines (sulforhodamine B); type: cell-based, human; conditions: leukemia, non-small cell lung, colon, CNS, melanoma, ovarian, renal, prostate and breast cancer cell lines; read-out: GI50 values, range over the panel
[2] = system: K-562; assay: SRB anti-cancer assay, Leukemia; type: cell-based, human; conditions: K-562 (Leukemia), 48 h; for CC50: read-out: LC50 (the source's name)
[3] = system: MOLT-4; assay: SRB anti-cancer assay, Leukemia; type: cell-based, human; conditions: MOLT-4 (Leukemia), 48 h; for CC50: read-out: LC50 (the source's name)
[4] = system: EKVX; type: cell-based, human; conditions: EKVX (Non-Small Cell Lung Cancer), 48 h; for CC50: read-out: LC50 (the source's name)
[5] = system: NCI-H226; type: cell-based, human; conditions: NCI-H226 (Non-Small Cell Lung Cancer), 48 h; for CC50: read-out: LC50 (the source's name)
[6] = system: NCI-H23; type: cell-based, human; conditions: NCI-H23 (Non-Small Cell Lung Cancer), 48 h; for CC50: read-out: LC50 (the source's name)
[7] = system: HCT-116; assay: SRB anti-cancer assay, Colon Cancer; type: cell-based, human; conditions: HCT-116 (Colon Cancer), 48 h; for CC50: read-out: LC50 (the source's name)
[8] = system: HT29; assay: SRB anti-cancer assay, Colon Cancer; type: cell-based, human; conditions: 48 h
[9] = system: KM12; assay: SRB anti-cancer assay, Colon Cancer; type: cell-based, human; conditions: 48 h
[10] = system: SF-295; assay: SRB anti-cancer assay, CNS Cancer; type: cell-based, human; conditions: SF-295 (CNS Cancer), 48 h; for CC50: read-out: LC50 (the source's name)
[11] = system: SNB-19; assay: SRB anti-cancer assay, CNS Cancer; type: cell-based, human; conditions: SNB-19 (CNS Cancer), 48 h; for CC50: read-out: LC50 (the source's name)
[12] = system: LOX IMVI; assay: SRB anti-cancer assay, Melanoma; type: cell-based, human; conditions: 48 h
[13] = system: SK-MEL-5; assay: SRB anti-cancer assay, Melanoma; type: cell-based, human; conditions: SK-MEL-5 (Melanoma), 48 h
[14] = system: IGROV1; assay: SRB anti-cancer assay, Ovarian Cancer; type: cell-based, human; conditions: 48 h
[15] = system: OVCAR-5; assay: SRB anti-cancer assay, Ovarian Cancer; type: cell-based, human; conditions: OVCAR-5 (Ovarian Cancer), 48 h; for CC50: read-out: LC50 (the source's name)
[16] = system: TK-10; assay: SRB anti-cancer assay, Renal Cancer; type: cell-based, human; conditions: TK-10 (Renal Cancer), 48 h
[17] = system: PC-3; assay: SRB anti-cancer assay, Prostate Cancer; type: cell-based, human; conditions: PC-3 (Prostate Cancer), 48 h
[18] = system: MCF7; assay: SRB anti-cancer assay, Breast Cancer; type: cell-based, human; conditions: 48 h
[19] = system: MDA-MB- 231/ATCC; assay: SRB anti-cancer assay, Breast Cancer; type: cell-based, human; conditions: MDA-MB- 231/ATCC (Breast Cancer), 48 h; for CC50: read-out: LC50 (the source's name)
[20] = system: HS 578T; assay: SRB anti-cancer assay, Breast Cancer; type: cell-based, human; conditions: HS 578T (Breast Cancer), 48 h
[21] = system: MDA-MB-435; assay: SRB anti-cancer assay, Breast Cancer; type: cell-based, human; conditions: MDA-MB-435 (Breast Cancer), 48 h; for CC50: read-out: LC50 (the source's name)
[22] = system: T-47D; assay: SRB anti-cancer assay, Breast Cancer; type: cell-based, human; conditions: T-47D (Breast Cancer), 48 h; for CC50: read-out: LC50 (the source's name)
[23] = system: HIV; assay: Antiviral test against HIV; type: cell-based
Experimental: (§1) These compounds were also tested for their effects on HIV (Weislow, O. , et al., J. Natl. Cancer Inst., 81:577-586, 1989), herpes simplex virus (HSV)-1, HSV-2, cytomegalovirus (CMV), Varicella Zoster virus (VZV) and Epstein-Barr virus (EBV) replication (National Institute of Allergy and Infectious Diseases (NIAID), NIH, Bethesda, Md.).

[24] = system: herpes simplex virus (HSV)-1; assay: Antiviral test against HSV-1; type: cell-based
Experimental: as §1

[25] = system: Epstein-Barr virus (EBV); assay: Antiviral test against EBV; type: cell-based
Experimental: as §1

[26] = system: HOP-92; type: cell-based, human; conditions: HOP-92 (Non-Small Cell Lung Cancer), 48 h
[27] = system: U251; assay: SRB anti-cancer assay, CNS Cancer; type: cell-based, human; conditions: 48 h
[28] = system: BT-549; assay: SRB anti-cancer assay, Breast Cancer; type: cell-based, human; conditions: BT-549 (Breast Cancer), 48 h
[29] = read-out: LC50 (the source's name)

Question: With `N=c1nc(N)c2ncn([C@@H]3O[C@H](COC(=O)c4ccccc4)[C@@H](OC(=O)c4ccccc4)[C@H]3OC(=O)c3ccccc3)c2c(N)n1` [4,8-Diamino-6H-6-imino-1(2′,3′,5′-tri-O-benzoyl-β-D-ribofuranosyl)imidazo[4,5-e][1,3]diazepine] as the compound, how does the GI50 [1] read?
Answer: 0.1 to 10 µM

Question: And the GI50 [2]?
Answer: 2.74 µM

Question: And the TGI [2]?
Answer: >100 µM

Question: What about the CC50 [2] of the same compound?
Answer: > 100 µM

Question: What about the GI50 [3] of the same compound?
Answer: 2.31 µM

Question: What about the TGI [3] of the same compound?
Answer: 7.08 µM

Question: And the CC50 [3]?
Answer: > 100 µM

Question: What about the GI50 [4] of the same compound?
Answer: 10.9 µM

Question: And the TGI [4]?
Answer: 29.6 µM

Question: What about the CC50 [4] of the same compound?
Answer: 80.4 µM

Question: And the GI50 [5]?
Answer: 6.89 µM

Question: What about the TGI [5] of the same compound?
Answer: 25.1 µM

Question: And the CC50 [5]?
Answer: 72.4 µM

Question: What about the GI50 [6] of the same compound?
Answer: 12.3 µM

Question: What about the TGI [6] of the same compound?
Answer: 27.7 µM

Question: What about the CC50 [6] of the same compound?
Answer: 62.3 µM

Question: What about the GI50 [7] of the same compound?
Answer: 3.76 µM

Question: What about the TGI [7] of the same compound?
Answer: 21.2 µM

Question: What about the CC50 [7] of the same compound?
Answer: 87.5 µM

Question: And the GI50 [8]?
Answer: 2.58 µM

Question: And the TGI [8]?
Answer: 10.3 µM

Question: And the CC50 [8, 29]?
Answer: 42.3 µM

Question: And the GI50 [9]?
Answer: 5.5 µM

Question: And the LC50 [9]?
Answer: 53.6 µM

Question: What about the TGI [9] of the same compound?
Answer: 19.4 µM

Question: And the GI50 [10]?
Answer: 6.03 µM

Question: And the TGI [10]?
Answer: 19.6 µM

Question: What about the CC50 [10] of the same compound?
Answer: 49.2 µM

Question: What about the GI50 [11] of the same compound?
Answer: 14.7 µM

Question: And the TGI [11]?
Answer: 31.6 µM

Question: What about the CC50 [11] of the same compound?
Answer: 68.2 µM

Question: What about the GI50 [12] of the same compound?
Answer: 3.01 µM

Question: And the TGI [12]?
Answer: >100 µM

Question: And the CC50 [12, 29]?
Answer: > 100 µM

Question: What about the GI50 [13] of the same compound?
Answer: 1.36 µM

Question: What about the TGI [13] of the same compound?
Answer: 2.64 µM

Question: What about the CC50 [13, 29] of the same compound?
Answer: 5.16 µM

Question: And the GI50 [14]?
Answer: 5.13 µM

Question: And the TGI [14]?
Answer: 20.3 µM

Question: What about the CC50 [14, 29] of the same compound?
Answer: 66.7 µM

Question: And the GI50 [15]?
Answer: 15.7 µM

Question: What about the TGI [15] of the same compound?
Answer: 30.1 µM

Question: What about the CC50 [15] of the same compound?
Answer: 57.7 µM

Question: What about the GI50 [16] of the same compound?
Answer: 21.3 µM

Question: And the TGI [16]?
Answer: 82.2 µM

Question: And the CC50 [16, 29]?
Answer: > 100 µM

Question: And the GI50 [17]?
Answer: 4.46 µM

Question: And the TGI [17]?
Answer: 16.6 µM

Question: What about the GI50 [18] of the same compound?
Answer: 1.47 µM

Question: What about the TGI [18] of the same compound?
Answer: 3.12 µM

Question: What about the CC50 [18, 29] of the same compound?
Answer: 6.61 µM

Question: What about the GI50 [19] of the same compound?
Answer: 5 µM

Question: What about the TGI [19] of the same compound?
Answer: 22 µM

Question: What about the CC50 [19] of the same compound?
Answer: 61.6 µM

Question: And the GI50 [20]?
Answer: 15.8 µM

Question: And the TGI [20]?
Answer: 40.1 µM

Question: What about the CC50 [20, 29] of the same compound?
Answer: > 100 µM

Question: And the GI50 [21]?
Answer: 14.9 µM

Question: And the TGI [21]?
Answer: 29.8 µM

Question: What about the CC50 [21] of the same compound?
Answer: 59.8 µM

Question: What about the GI50 [22] of the same compound?
Answer: 5.14 µM

Question: What about the TGI [22] of the same compound?
Answer: 18.9 µM

Question: And the CC50 [22]?
Answer: 48.8 µM

Question: Which “antiviral activity against HIV” value [23] does the source give for `N=c1[nH]c(=O)c2ncn([C@@H]3O[C@H](CO)[C@@H](O)[C@H]3O)c2c(=O)[nH]1` [Compound 14-1, 6-Imino-6H-1-β-D-ribofuranosyl-4,5,7,8-tetrahydroimidazo[4,5-e][1,3]diazepine-4,8-dione] here?
Answer: no antiviral activity

Question: What about the “antiviral activity against HSV-1” value [24] of the same compound?
Answer: no antiviral activity

Question: And the “antiviral activity against EBV” value [25]?
Answer: no antiviral activity

Question: What about the GI50 [2] of the same compound?
Answer: > 100 µM

Question: What about the TGI [2] of the same compound?
Answer: >100 µM

Question: And the CC50 [2]?
Answer: > 100 µM

Question: And the GI50 [3]?
Answer: > 100 µM

Question: What about the TGI [3] of the same compound?
Answer: >100 µM

Question: What about the CC50 [3] of the same compound?
Answer: > 100 µM

Question: And the GI50 [4]?
Answer: > 100 µM

Question: What about the TGI [4] of the same compound?
Answer: >100 µM

Question: And the CC50 [4]?
Answer: > 100 µM

Question: And the GI50 [26]?
Answer: > 100 µM

Question: And the TGI [26]?
Answer: >100 µM

Question: What about the CC50 [26, 29] of the same compound?
Answer: > 100 µM

Question: And the GI50 [5]?
Answer: > 100 µM

Question: And the TGI [5]?
Answer: >100 µM

Question: And the CC50 [5]?
Answer: > 100 µM

Question: What about the GI50 [6] of the same compound?
Answer: > 100 µM

Question: What about the TGI [6] of the same compound?
Answer: >100 µM

Question: And the CC50 [6]?
Answer: > 100 µM

Question: And the GI50 [7]?
Answer: > 100 µM

Question: What about the TGI [7] of the same compound?
Answer: >100 µM

Question: What about the CC50 [7] of the same compound?
Answer: > 100 µM

Question: What about the GI50 [9] of the same compound?
Answer: > 100 µM

Question: And the LC50 [9]?
Answer: > 100 µM

Question: What about the TGI [9] of the same compound?
Answer: >100 µM

Question: And the GI50 [10]?
Answer: > 100 µM

Question: And the TGI [10]?
Answer: >100 µM

Question: What about the CC50 [10] of the same compound?
Answer: > 100 µM

Question: And the GI50 [11]?
Answer: > 100 µM

Question: And the TGI [11]?
Answer: >100 µM

Question: And the CC50 [11]?
Answer: > 100 µM

Question: And the GI50 [27]?
Answer: > 100 µM

Question: And the TGI [27]?
Answer: >100 µM

Question: And the CC50 [27, 29]?
Answer: > 100 µM

Question: What about the GI50 [15] of the same compound?
Answer: > 100 µM

Question: And the TGI [15]?
Answer: >100 µM

Question: And the CC50 [15]?
Answer: > 100 µM

Question: And the TGI [19]?
Answer: >100 µM

Question: What about the CC50 [19] of the same compound?
Answer: > 100 µM

Question: And the GI50 [21]?
Answer: > 100 µM

Question: And the TGI [21]?
Answer: >100 µM

Question: And the CC50 [21]?
Answer: > 100 µM

Question: And the GI50 [28]?
Answer: > 100 µM

Question: And the TGI [28]?
Answer: >100 µM

Question: And the CC50 [28, 29]?
Answer: > 100 µM

Question: And the GI50 [22]?
Answer: > 100 µM

Question: What about the TGI [22] of the same compound?
Answer: >100 µM

Question: What about the CC50 [22] of the same compound?
Answer: > 100 µM
